Assay results published in US20090311237A1, “Combination therapy using a soluble hyaluronidase and a bisphosphonate” (priority 2008, published 2009).
“And” between values parts separate entries of the source, which are not always exact repeats. Identical values can stand only once.

Assay: Phase 1 Stage 1 clinical pharmacokinetics of SC ZA co-administered with rHuPH20
Assay type: in vivo, human
Details: for MAT (mean absorption time = SC MRT − IV MRT) / MAT, Mean for the dose group / MAT, Median for the dose group: 100 mL, 24000 Units rHuPH20
Experimental: A pharmacokinetic study of zoledronic acid (ZA) co-administered with rHuPH20 in human subjects was conducted. The primary objective of the study was to determine the bioavailability of zoledronic acid dosed via subcutaneous (SC) co-administration with human recombinant hyaluronidase PH20 (rHuPH20). […] The patients were administered the prescribed dosage formulations as follows: Cohorts 1-5 were administered a single subcutaneous infusion in a dosage volume of 100 ml at a rate of 3 mL/min. […] The dosing solution is administered via needle or catheter into the SC space of the left anterior thigh (midway between the anterior iliac crest and the cephalad border of the patella). For cohorts 1-5, the dosing solutions were administered by a controlled rate infusion pump at approximately 3 mL/minute. […] The dosing solutions were administered by syringe push bolus injection. […] Serum concentration of ZA was determined using a qualified LC-MS-MS assay after derivatization with diazomethane (Zhu, L S et al. (2006) Rapid Commun. […] The assay range was from 2.0 to 400 ng/mL with a lower limit of quantitation (LLOQ) at 2.0 ng/mL. […] Non-compartmental analysis was used for derivation of primary and secondary pharmacokinetic (PK) parameters. […] Summary statistics (mean, standard deviation, and median) were calculated using JMP or Microsoft Excel.

[1] = Subj 51, ZA […] SC, inf 0.251 hr, PH20 6024 U
[2] = Subj 63, ZA 0.0820 mg/kg SC, inf […], PH20 6000 U
[3] = Subj 67, ZA 0.0717 mg/kg SC, inf […], PH20 2880 U
[4] = Subj 68, ZA 0.0608 mg/kg SC, inf […], PH20 2880 U
[5] = Subj 70, ZA 0.0776 mg/kg SC, inf […], PH20 2928 U
[6] = Subj 71, ZA 0.0781 mg/kg SC, inf […], PH20 6000 U
[7] = Subj 74, ZA 0.0794 mg/kg SC, inf […], PH20 6000 U
[8] = Subj 77, ZA […] SC, inf […], PH20 6000 U
[9] = ZA 0.25 mg SC + 24000 U rHuPH20, individual subjects
[10] = ZA 0.25 mg SC + 24000 U rHuPH20, mean, n=3
[11] = ZA 0.25 mg SC + 24000 U rHuPH20, median, n=3
[12] = ZA 0.5 mg SC + 24000 U rHuPH20, individual subjects
[13] = ZA 0.5 mg SC + 24000 U rHuPH20, mean, n=3
[14] = ZA 0.5 mg SC + 24000 U rHuPH20, median, n=3
[15] = ZA 1 mg SC + 24000 U rHuPH20, individual subjects
[16] = ZA 1 mg SC + 24000 U rHuPH20, mean, n=3
[17] = ZA 1 mg SC + 24000 U rHuPH20, median, n=3
[18] = ZA 2 mg SC + 24000 U rHuPH20, individual subjects

## O=P(O)(O)C(O)(Cn1ccnc1)P(=O)(O)O [ZA, 1-hydroxy-2-(1H-imidazol-1-yl)ethylidene-1,1-bisphosphonic acid]
[1]
  Vss: 1.27627 L/kg
  Vz: 3.04413 L/kg
[2]
  AUC (0-inf)/D: 0.008077 kg·h/mL
  CL: 2.0635 mL/min/kg
  Cmax/D: 0.002037 kg/mL
  Vss: 1.473 L/kg
  Vz: 3.66662 L/kg
[3]
  AUC (0-inf)/D: 0.01012 kg·h/mL
  CL: 1.648 mL/min/kg
  Cmax/D: 0.002176 kg/mL
  Vss: 1.03944 L/kg
  Vz: 2.6134 L/kg
[4]
  AUC (0-inf)/D: 0.01035 kg·h/mL
  CL: 1.61 mL/min/kg
  Cmax/D: 0.002368 kg/mL
  Vss: 1.59221 L/kg
  Vz: 3.88814 L/kg
[5]
  AUC (0-inf)/D: 0.008898 kg·h/mL
  CL: 1.873 mL/min/kg
  Cmax/D: 0.002771 kg/mL
  Vss: 0.98673 L/kg
  Vz: 3.15269 L/kg
[6]
  AUC (0-inf)/D: 0.008873 kg·h/mL
  CL: 1.8783 mL/min/kg
  Cmax/D: 0.002535 kg/mL
  Vss: 0.87424 L/kg
  Vz: 3.12259 L/kg
[7]
  AUC (0-inf)/D: 0.006994 kg·h/mL
  CL: 2.3828 mL/min/kg
  Cmax/D: 0.001511 kg/mL
  Vss: 1.84253 L/kg
  Vz: 4.88924 L/kg
[8]
  AUC (0-inf)/D: 0.008412 kg·h/mL
  CL: 1.9812 mL/min/kg
  Cmax/D: 0.001824 kg/mL
  Vss: 1.60873 L/kg
  Vz: 4.21769 L/kg
[9]
  AUC (0-12h): 29.30 ng·h/mL
  AUC (0-∞): 30.00 ng·h/mL and 31.77 ng·h/mL
  AUC (0-∞)/D: 0.00926 kg·h/mL and 0.00674 kg·h/mL and 0.00971 kg·h/mL
  Cmax/D: 0.00205 kg/mL and 0.00174 kg/mL and 0.00173 kg/mL
  MRT: 4.21 h
  T½elim: 1.88 h and 2.44 h and 2.10 h
[10]
  AUC (0-∞)/D: 0.00857 kg·h/mL
  Cmax/D: 0.00184 kg/mL
  T½elim: 2.14 h
[11]
  AUC (0-∞)/D: 0.00926 kg·h/mL
  Cmax/D: 0.00174 kg/mL
  T½elim: 2.10 h
ZA 0.25 mg SC, individual subjects
  MAT (mean absorption time = SC MRT − IV MRT): 1.47 h and 1.03 h and 2.31 h
ZA 0.25 mg SC, n=3
  MAT, Mean for the dose group: 1.60 h
  MAT, Median for the dose group: 1.47 h
[12]
  AUC (0-12h): 66.33 ng·h/mL
  AUC (0-∞): 68.26 ng·h/mL
  AUC (0-∞)/D: 0.00709 kg·h/mL and 0.00766 kg·h/mL and 0.00968 kg·h/mL
  Cmax/D: 0.00174 kg/mL and 0.00192 kg/mL and 0.00214 kg/mL
  MRT: 3.35 h
  T½elim: 2.24 h and 2.27 h (2×)
[13]
  AUC (0-∞)/D: 0.00814 kg·h/mL
  Cmax/D: 0.00193 kg/mL
  T½elim: 2.26 h
[14]
  AUC (0-∞)/D: 0.00766 kg·h/mL
  Cmax/D: 0.00192 kg/mL
  T½elim: 2.27 h
ZA 0.5 mg SC, individual subjects
  MAT (mean absorption time = SC MRT − IV MRT): 1.00 h and 1.11 h
ZA 0.5 mg SC, n=3
  MAT, Mean for the dose group: 1.03 h
  MAT, Median for the dose group: 1.00 h
[15]
  AUC (0-12h): 137.25 ng·h/mL
  AUC (0-∞): 158.68 ng·h/mL
  AUC (0-∞)/D: 0.00701 kg·h/mL and 0.01176 kg·h/mL and 0.00624 kg·h/mL
  Cmax/D: 0.00174 kg/mL and 0.00247 kg/mL and 0.00128 kg/mL
  MRT: 6.25 h
  Tmax: 0.73 h
  T½elim: 12.87 h and 13.95 h and 8.85 h
[16]
  AUC (0-∞)/D: 0.00834 kg·h/mL
  Cmax/D: 0.00183 kg/mL
  T½elim: 11.89 h
[17]
  AUC (0-∞)/D: 0.00701 kg·h/mL
  Cmax/D: 0.00174 kg/mL
  T½elim: 12.87 h
ZA 1 mg SC, individual subjects
  MAT (mean absorption time = SC MRT − IV MRT): 1.41 h and 1.00 h
ZA 1 mg SC, n=3
  MAT, Mean for the dose group: 1.36 h
  MAT, Median for the dose group: 1.41 h
[18]
  AUC (0-12h): 213.87 ng·h/mL and 236.51 ng·h/mL
  AUC (0-∞): 245.47 ng·h/mL and 293.51 ng·h/mL
  AUC (0-∞)/D: 0.00739 kg·h/mL and 0.00809 kg·h/mL and 0.00825 kg·h/mL
  Cmax/D: 0.00188 kg/mL and 0.00175 kg/mL and 0.00165 kg/mL
  MRT: 10.59 h
